Experimental data reported in patent US20090012091A1, “Oximide derivatives and their therapeutical application” (KinaGen, Inc., priority 2007, published 2009).
pIC50: −log10 of the molar value.

target: T1, B-raf kinase (Homo sapiens, UniProt P15056); assay: in vitro Raf Kinase Assay (33P-phosphate incorporation into GST-kdMEK); assay type: biochemical; details: human recombinant Raf protein, substrate GST-kdMEK, 33P-ATP, 25° C., 90 minutes; read-out: IC50 (concentration of test compound required to inhibit 50% of the B-raf kinase activity)
T1 construct: made in house; host or cells: Sf9 insect cells (baculovirus)
T1 sequence (P15056 whole entry): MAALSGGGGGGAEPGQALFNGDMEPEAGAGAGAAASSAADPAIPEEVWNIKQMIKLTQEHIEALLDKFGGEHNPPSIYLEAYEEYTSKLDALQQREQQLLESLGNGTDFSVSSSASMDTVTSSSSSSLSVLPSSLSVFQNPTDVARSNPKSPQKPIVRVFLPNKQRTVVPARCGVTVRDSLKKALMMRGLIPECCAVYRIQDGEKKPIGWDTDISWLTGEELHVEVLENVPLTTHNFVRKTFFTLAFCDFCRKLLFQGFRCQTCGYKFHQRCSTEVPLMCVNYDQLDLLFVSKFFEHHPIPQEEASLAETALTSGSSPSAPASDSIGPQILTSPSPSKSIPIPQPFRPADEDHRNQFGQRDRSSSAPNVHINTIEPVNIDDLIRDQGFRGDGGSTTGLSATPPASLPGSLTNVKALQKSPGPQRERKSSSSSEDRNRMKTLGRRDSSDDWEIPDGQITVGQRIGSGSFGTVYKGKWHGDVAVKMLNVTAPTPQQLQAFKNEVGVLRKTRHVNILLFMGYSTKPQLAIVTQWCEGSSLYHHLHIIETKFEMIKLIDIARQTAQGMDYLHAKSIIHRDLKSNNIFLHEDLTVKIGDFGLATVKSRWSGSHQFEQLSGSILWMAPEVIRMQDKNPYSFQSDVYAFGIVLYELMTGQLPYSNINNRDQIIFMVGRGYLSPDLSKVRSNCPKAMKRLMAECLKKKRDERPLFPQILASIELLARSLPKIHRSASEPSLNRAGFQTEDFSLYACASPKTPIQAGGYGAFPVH
Description: Activity of human recombinant Raf protein was assessed in vitro by assay of the incorporation of radiolabelled phosphate to recombinant MAP kinase (MEK), a known physiologic substrate of Raf. Catalytically active human recombinant Raf protein was obtained by purification from sf9 insect cells infected with a human Raf recombinant baculovirus expression vector.
Method: Standard assay conditions of Raf catalytic activity utilized […] of GST-kdMBK, 10 µM ATP and 2 uCi ^33P-ATP, 50 mM MOPS, 0.1 mM EDTA, 0.1M sucrose, 10 mM MgCl2 plus 0.1% dimethylsulphoxide (containing compound where appropriate) in a total reaction volume of 30 ul. Reactions were incubated at 25° C. for 90 minutes and reactions terminated by addition of EDTA to a final concentration of […]. 10 ul of reaction was spotted to P30 phosphocellulose paper and air dried. Following four washes in ice cold 10% trichloroacetic acid, 0.5% phosphoric acid, papers were air dried prior to addition of liquid scintillant and measurement of radioactivity in a scintillation counter. The % inhibition of the B-raf kinase activity is calculated and plotted in order to determine the concentration of test compound required to inhibit 50% of the B-raf kinase activity (IC50).

SMILES | pIC50
CC(C)(C)OC(=O)c1cc(Oc2ccc(NC(=O)Nc3ccc(Cl)c(C(F)(F)F)c3)cc2)ccn1 [Compound 3, tert-butyl 4-(4-(3-(4-chloro-3-(trifluoromethyl)phenyl)ureido)phenoxy)picolinate] | > 5.00
O=C(Nc1ccc(Oc2ccnc(C(=O)O)c2)cc1)Nc1ccc(Cl)c(C(F)(F)F)c1 [Compound 4, 4-(4-(3-(4-chloro-3-(trifluoromethyl)phenyl)ureido)phenoxy)picolinic acid] | > 5.00
CONC(=O)c1cc(Oc2ccc(NC(=O)Nc3ccc(Cl)c(C(F)(F)F)c3)cc2)ccn1 [Compound 5, 4-(4-(3-(4-chloro-3-(trifluoromethyl)phenyl)ureido)phenoxy)-N-methoxypicolinamide] | > 6.00
CCCONC(=O)c1cc(Oc2ccc(NC(=O)Nc3ccc(Cl)c(C(F)(F)F)c3)cc2)ccn1 [Compound 6, 4-(4-(3-(4-chloro-3-(trifluoromethyl)phenyl)urei-do)phenoxy)-N-propoxypicolinamide] | > 6.00
CCONC(=O)c1cc(Oc2ccc(NC(=O)Nc3ccc(Cl)c(C(F)(F)F)c3)cc2)ccn1 [Compound 7, 4-(4-(3-(4-chloro-3-(trifluoromethyl)phenyl)urei-do)phenoxy)-N-ethoxypicolinamide] | > 6.00
CCN(CC)CCONC(=O)c1cc(Oc2ccc(NC(=O)Nc3ccc(Cl)c(C(F)(F)F)c3)cc2)ccn1 [Compound 8, 4-(4-(3-(4-chloro-3-(trifluoromethyl)phenyl)urei-do)phenoxy)-N-(2-(diethylamino)ethoxy)picolinamide] | > 6.00
CN(C)CCONC(=O)c1cc(Oc2ccc(NC(=O)Nc3ccc(Cl)c(C(F)(F)F)c3)cc2)ccn1 [Compound 9, 4-(4-(3-(4-chloro-3-(trifluoromethyl)phenyl)urei-do)phenoxy)-N-(2-(dimethylamino)ethoxy)picolinamide] | > 6.00
CCN(CC)C(=O)CONC(=O)c1cc(Oc2ccc(NC(=O)Nc3ccc(Cl)c(C(F)(F)F)c3)cc2)ccn1 [Compound 10, 4-(4-(3-(4-chloro-3-(trifluoromethyl)phenyl)urei-do)phenoxy)-N-(2-(diethylamino)-2-oxoethoxy)picolinamide] | > 6.00
CN(C)C(=O)CONC(=O)c1cc(Oc2ccc(NC(=O)Nc3ccc(Cl)c(C(F)(F)F)c3)cc2)ccn1 [Compound 11, 4-(4-(3-(4-chloro-3-(trifluoromethyl)phenyl)urei-do)phenoxy)-N-(2-(dimethylamino)-2-oxoethoxy)picolinamide] | > 6.00
CONC(=O)c1cc(Oc2ccc(NC(=O)Nc3ccc(Cl)cc3)cc2)ccn1 [Compound 12, 4-(4-(3-(4-chlorophenyl)ureido)phenoxy)-N-methoxypicolinamide] | > 6.00
CONC(=O)c1cc(Oc2ccc(NC(=O)Nc3cccc(C(F)(F)F)c3)cc2)ccn1 [Compound 13, N-methoxy-4-(4-(3-(3-(trifluoromethyl)phenyl)urei-do)phenoxy)picolinamide] | > 6.00
CONC(=O)c1cc(Oc2ccc(NC(=O)Nc3ccc(Cl)c(Cl)c3)cc2)ccn1 [Compound 14, 4-(4-(3-(3,4-dichlorophenyl)ureido)phenoxy)-N-methoxypicolinamide] | > 6.00
CONC(=O)c1cc(Oc2ccc(NC(=O)Nc3ccccc3)cc2)ccn1 [Compound 15, N-methoxy-4-(4-(3-phenylureido)phenoxy)picolinamide] | > 6.00
CONC(=O)c1cc(Oc2ccc(NC(=O)Nc3ccc(OC)c(OC)c3)cc2)ccn1 [Compound 16, 4-(4-(3-(3,4-dimethoxyphenyl)ureido)phenoxy)-N-methoxypicolinamide] | > 6.00
O=C(Nc1ccc(Oc2ccnc(C(=O)NOC3CCCC3)c2)cc1)Nc1ccc(Cl)c(Cl)c1 [Compound 17, N-(cyclopentyloxy)-4-(4-(3-(3,4-dichloro-phenyl)ureido)phenoxy)picolinamide] | > 6.00
O=C(Nc1ccccc1)Nc1ccc(Oc2ccnc(C(=O)NOC3CCCCC3)c2)cc1 [Compound 18, N-(cyclohexyloxy)-4-(4-(3-phenylureido)phenoxy)picolinamide] | > 6.00
COc1ccc(NC(=O)Nc2ccc(Oc3ccnc(C(=O)NOC4CCC4)c3)cc2)cc1OC [Compound 19, N-cyclobutoxy-4-(4-(3-(3,4-dimethoxyphenyl)urei-do)phenoxy)picolinamide] | > 6.00
CCNC(=O)c1cc(Oc2ccc(NC(=O)c3ccc(Cl)cc3)cc2)ccn1 [Compound 20, 4-(4-(4-chloro-benzamido)phenoxy)-N-ethylpicolinamide] | > 5.00
CCNC(=O)c1cc(Oc2ccc(NC(=O)c3ccc(Cl)c(Cl)c3)cc2)ccn1 [Compound 21, 4-(4-(3,4-dichlorobenzamido)phenoxy)-N-ethylpicolinamide] | > 5.00
O=C(Nc1ccc(Oc2cc(C(=O)NCCO)ncn2)cc1)Nc1ccc(Cl)c(C(F)(F)F)c1 [Compound 22, 6-(4-(3-(4-chloro-3-(trifluoro-methyl)phenyl)ureido)phenoxy)-N-(2-hydroxyethyl)pyrimidine-4-carboxamide] | > 6.00
CNC(=O)c1cc(Oc2ccc(NC(=O)Nc3ccc(Cl)c(C(F)(F)F)c3)cc2)ncn1 [Compound 23, 6-(4-(3-(4-chloro-3-(trifluoro-methyl)phenyl)ureido)phenoxy)-N-methylpyrimidine-4-carboxamide] | > 6.00
CNC(=O)c1cc(Oc2ccc(NC(=O)Nc3ccc(Cl)cc3)cc2)ncn1 [Compound 24, 6-(4-(3-(4-chlorophenyl)ureido)phenoxy)-N-methylpyrimidine-4-carboxamide] | > 6.00
CCONC(=O)c1cc(Oc2ccc(NC(=O)Nc3ccc(Cl)c(C(F)(F)F)c3)cc2)ncn1 [Compound 25, 6-(4-(3-(4-chloro-3-(trifluoro-methyl)phenyl)ureido)phenoxy)-N-ethoxypyrimidine-4-carboxamide] | > 6.00
CONC(=O)c1cc(Oc2ccc(NC(=O)Nc3ccc(Cl)c(C(F)(F)F)c3)cc2)ncn1 [Compound 26, 6-(4-(3-(4-chloro-3-(trifluoro-methyl)phenyl)ureido)phenoxy)-N-methoxypyrimidine-4-carboxamide] | > 6.00
CN(C)CCNC(=O)c1cc(Oc2ccc(NC(=O)Nc3ccc(Cl)c(C(F)(F)F)c3)cc2)ncn1 [Compound 27, 6-(4-(3-(4-chloro-3-(trifluoro-methyl)phenyl)ureido)phenoxy)-N-(2-(dimethylamino)ethyl)pyrimidine-4-carboxamide] | > 6.00
CNC(=O)c1ncnc(Oc2ccc(NC(=O)Nc3ccc(Cl)c(C(F)(F)F)c3)cc2)n1 [Compound 28, 4-(4-(3-(4-chloro-3-(trifluoro-methyl)phenyl)ureido)phenoxy)-N-methyl-1,3,5-triazine-2-carboxamide] | > 6.00
